# Assay results published in ChEMBL document CHEMBL5625273, “Antiproliferative activities through accelerating autophagic flux by basidalin and its analogs in human cancer cells” (Bioorg Med Chem Lett, 2024).
# Activity calls are given as the source filed them. The calls are words filed in the database; no cut-off is given here.
# Legend:
# Type in all cases: functional, cell-based
# SH-SY5Y [1] = test: Induction of autophagic flux in human SH-SY5Y cells expressing GFP-LC3 assessed as increase in LC3 punctae co-localized with LAMP1 at 30 to 100 uM incubated for 24 hrs in presence of pepA; conditions: dose 30-100 µM
# HeLa [2] = test: Induction of autophagic flux in human HeLa cells assessed as increase in LC3-II expression at 30 to 100 uM incubated for 24 hrs in presence of E64D by Western blot analysis; conditions: dose 30-100 µM
# PANC-1 = test: Antiproliferative activity against human PANC-1 cells by MTT assay
# HeLa [3] = test: Effect on p70S6K phosphorylation in human HeLa cells at 1 to 30 uM incubated for 24 hrs by Western blot analysis; conditions: dose 1-30 µM
# MCF7 = test: Antiproliferative activity against human MCF7 cells by MTT assay
# HT-1080 = test: Antiproliferative activity against human HT-1080 cells by MTT assay
# HeLa [4] = test: Induction of autophagy in human HeLa cells assessed as increase in LC3-II expression incubated for 24 hrs by Western blot analysis; conditions: dose 1-30 µM
# HeLa [5] = test: Induction of autophagic flux in human HeLa cells assessed as increase in LC3-II expression at 30 to 100 uM incubated for 24 hrs in presence of pepA by Western blot analysis; conditions: dose 30-100 µM
# HeLa [6] = test: Antiproliferative activity against human HeLa cells by MTT assay
# SH-SY5Y [7] = test: Induction of autophagic flux in human SH-SY5Y cells expressing GFP-LC3 assessed as increase in LC3 punctae co-localized with LAMP1 at 30 to 100 uM incubated for 24 hrs in presence of E64D; conditions: dose 30-100 µM
# HCT-116 = test: Antiproliferative activity against human HCT-116 cells by MTT assay
# PC-3 = test: Antiproliferative activity against human PC-3 cells by MTT assay
# SK-MEL-28 = test: Antiproliferative activity against human SK-MEL-28 cells by MTT assay
# HeLa [8] = test: Induction of autophagy in human HeLa cells assessed as increase in LC3-II expression at 100 uM incubated for 24 hrs by Western blot analysis
# HeLa [9] = test: Effect on p70S6K phosphorylation in human HeLa cells at 100 uM incubated for 24 hrs by Western blot analysis
SMILES,Activity (SH-SY5Y [1]),Activity (HeLa [2]),IC50 (PANC-1),Activity (HeLa [3]),IC50 (MCF7),IC50 (HT-1080),Activity (HeLa [4]),Activity (HeLa [5]),IC50 (HeLa [6]),Activity (SH-SY5Y [7]),IC50 (HCT-116),IC50 (PC-3),IC50 (SK-MEL-28),Activity (HeLa [8]),Activity (HeLa [9])
NC1=CC(=O)O/C1=C/C=O,Active,Active,5.29 µM,inactive,7.87 µM,11.6 µM,Dose-Dependent Effect,Active,15.6 µM,Active,5.35 µM,9.79 µM,5.87 µM,–,–
CC(=O)NC1=CC(=O)O/C1=C/C=O,–,–,16.1 µM,–,38.8 µM,46.1 µM,–,–,27.7 µM,–,27.2 µM,21.7 µM,12.3 µM,Active,inactive
NC1=CC(=O)O/C1=C/CO,–,–,> 100 µM,–,> 100 µM,> 100 µM,–,–,> 100 µM,–,> 100 µM,> 100 µM,> 100 µM,–,–
NC1=CC(=O)OC1CCO (stereo not given),–,–,> 100 µM,–,> 100 µM,> 100 µM,–,–,> 100 µM,–,> 100 µM,> 100 µM,> 100 µM,–,–
CC(=O)NC1=CC(=O)O/C1=C/C(OC(C)=O)OC(C)=O,–,–,31.3 µM,–,22.4 µM,40.8 µM,–,–,44.8 µM,–,29.9 µM,42.6 µM,37.1 µM,Active,inactive
